Data: publication PMC4635503, “High-affinity nitrate/nitrite transporters NrtA and NrtB of Aspergillus nidulans exhibit high specificity and different inhibitor sensitivity” (Microbiology, 2015)
In brackets after ≈: the same amount, converted by molar mass. Entries after “also recorded” stand apart in the source; their conditions may differ. Where two headings read alike, the source gives them in different places.

How the values were obtained:
[1] = system: A. nidulans WT strain (NrtA, NrtB); experiment: MIC growth test on solid AMM, WT strain; type: cell-based, Aspergillus nidulans; conditions: Aspergillus nidulans
Description: (§1) Fungal growth tests were carried out in standard Petri dishes containing defined Aspergillus minimal medium (AMM) agar ([Cove, 1976]), with sodium nitrate or proline as the sole nitrogen source, at 1 or 10 mM concentration. Strains were tested for inhibition by bicarbonate, formate, oxalate, chlorite, sulphite (all purchased as the sodium salt), chlorate (potassium salt), malonate (acid form) or caesium (chloride salt). Stock aqueous solutions of inhibitors were adjusted to pH 6.5 and prepared immediately before use. It should be noted that at pH 6.5, bicarbonate is in approximately 50 % equilibrium with carbonic acid. […] Cultures were incubated routinely at 37 °C for 48 h, and the growth response was scored.
(§2) Each treatment was carried out in five replicates. […] As caesium was utilized as a chloride salt, a control for potential inhibition by chloride was assessed, by growth on 100 mM sodium chloride (Fig. 4).

[2] = system: A. nidulans mutant nrtB110 (functional NrtA); experiment: microbe, parasite or virus in culture; type: cell-based, Aspergillus nidulans; conditions: nrtB110 (NrtA)
Description: as §1, §2

[3] = target: NrtA, NrtB (WT strain); experiment: Net nitrate uptake assay and kinetics, WT strain; type: cell-based, Aspergillus nidulans; conditions: WT (NrtA, NrtB), inhibitor concentration reducing net nitrate uptake rate by 50 % of control, mean ± SE
Description: (§3) These were performed on cultures grown in liquid AMM with 5 mM urea as nitrogen source for a total of 6.5 h at 37 °C ([Brownlee & Arst, 1983]). Urea was used as it (i) is a neutral nitrogen source, neither inducing nor repressing nitrate transport, (ii) has been used routinely in the past and (iii) permitted direct comparison with previously published results. […] Transporter activity was induced by the addition of 10 mM sodium nitrate 100 min prior to assay as described previously ([Brownlee & Arst, 1983]). Assays were carried out in triplicate, generally at pH 6.5, on three independently grown cultures for each strain and expressed as nmol nitrate removed from the medium min^ − 1 (mg dried mycelium)^ − 1, as discussed before ([Brownlee & Arst, 1983]; [Kinghorn et al., 2005]; [Unkles et al., 2012]). Both carbonic acid and bicarbonate chemical species can occur at pH 6.5. Thus potential inhibition of nitrate transport by carbonic acid/bicarbonate was tested at pH 6.5 and bicarbonate at pH 8.3.
(§4) To effectively assess net uptake, it is necessary that any export, i.e. simultaneous transport in the reverse direction, is minimal.
(§5) Values of K m and V max were calculated by linear regression of Lineweaver–Burk analyses (1/v against 1/s, where v is net uptake and s is substrate concentration). The kinetic values of nitrate transport by the WT and mutants were compared with those from a previous report ([Unkles et al., 2001]). […] Therefore the kinetic values in the absence of inhibitors from the present study were used as control values. Each K i value was determined by regression of the rates of net nitrate uptake transport versus the range of concentrations of a particular inhibitor: linear or nonlinear regression was used, depending on which type provided the highest r ^2 value. Calculated from each regression was the concentration of the inhibitor that reduced net nitrate uptake rate by 50 % of the control (without inhibitor) rate, which was assessed as the K i value. Lineweaver–Burk analyses were carried out to determine the nature of the inhibition of nitrate transport for each inhibitor.

[4] = system: NrtB; type: cell-based, Aspergillus nidulans; conditions: for nature of inhibition of nitrate transport (Lineweaver–Burk): NrtB (expressed in nrtA1); for Ki: nrtA1 (NrtB), inhibitor concentration reducing net nitrate uptake rate by 50 % of control, mean ± SE
Description: as §3, §4, §5

[5] = system: NrtA, NrtB (WT strain); parameters: method as in Brownlee & Arst (1983); conditions: 1 mM chlorate, cells grown for 6 or 17 h, ref Brownlee & Arst (1983); cited from earlier work
[6] = system: NrtB; parameters: method as in Brownlee & Arst (1983); conditions: crnA1 (nrtA1) mutant, 1 mM chlorate, cells grown for 6 or 17 h; ref Brownlee & Arst (1983); cited from earlier work
[7] = target: T1, NrtA (Emericella nidulans, UniProt P22152); experiment: cell-based; parameters: mutant nrtB110 (expressing a functional NrtA); endogenous in cells; host or cells: Aspergillus nidulans mycelium, knockout strain nrtB110, nitrate-induced; species or system Aspergillus nidulans; conditions: for Ki: K i, nrtB110 (NrtA), inhibitor concentration reducing net nitrate uptake rate by 50 % of control, mean ± SE; for nature of inhibition of nitrate transport (Lineweaver–Burk): NrtA (expressed in nrtB110)
T1 sequence (P22152 whole entry): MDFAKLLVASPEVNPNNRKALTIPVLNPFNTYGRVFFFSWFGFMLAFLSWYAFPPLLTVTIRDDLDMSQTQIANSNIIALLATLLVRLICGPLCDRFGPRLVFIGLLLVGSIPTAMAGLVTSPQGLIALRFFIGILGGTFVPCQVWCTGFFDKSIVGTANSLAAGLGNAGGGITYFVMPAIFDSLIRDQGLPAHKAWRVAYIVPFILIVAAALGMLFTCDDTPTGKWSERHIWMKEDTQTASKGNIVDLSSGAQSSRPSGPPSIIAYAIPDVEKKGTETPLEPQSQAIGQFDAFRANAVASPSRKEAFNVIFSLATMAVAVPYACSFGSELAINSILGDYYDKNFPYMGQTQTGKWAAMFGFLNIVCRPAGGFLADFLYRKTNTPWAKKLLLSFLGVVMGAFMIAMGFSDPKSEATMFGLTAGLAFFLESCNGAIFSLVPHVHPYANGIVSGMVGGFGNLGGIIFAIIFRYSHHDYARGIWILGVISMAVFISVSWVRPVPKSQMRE
Description: as §3, §4, §5

[8] = target: T1, NrtA; parameters: mutant nrtB110 (expressing a functional NrtA); endogenous in cells; host or cells: Aspergillus nidulans mycelium, knockout strain nrtB110, nitrate-induced; method as in Zhou et al. (2000); conditions: NrtA expressed in Xenopus oocytes; ref Zhou et al. (2000); cited from earlier work
[9] = system: A. nidulans double mutant tbl110 (nrtA747 nrtB110, neither transporter); experiment: microbe, parasite or virus in culture; type: cell-based, Aspergillus nidulans; conditions: T110 (neither transporter)
Description: as §1, §2

[10] = system: A. nidulans mutant nrtA1 (functional NrtB); experiment: microbe, parasite or virus in culture; type: cell-based, Aspergillus nidulans; conditions: Aspergillus nidulans
Description: as §1, §2

[11] = system: nitrate transport by NrtA and NrtB; experiment: Net nitrate transport inhibition assays, strain not specified; type: cell-based, Aspergillus nidulans; conditions: net nitrate transport; data not shown
Description: as §3, §4

[12] = system: NitA; conditions: data not shown
[13] = 1 mM nitrate as sole nitrogen source, solid AMM, 37 °C
[14] = 1 mM proline as sole nitrogen source
[15] = 10 mM proline as sole nitrogen source
[16] = Aspergillus nidulans, 1 mM nitrate as sole nitrogen source
[17] = Aspergillus nidulans, 10 mM proline as sole nitrogen source
[18] = 10 mM nitrate as sole nitrogen source
[19] = Aspergillus nidulans, 1 mM proline as sole nitrogen source

| SMILES | MIC [1, 13] | MIC [1, 14] | MIC [1, 15] | MIC [2, 16] | MIC [2, 17] | Ki [3] | nature of inhibition of nitrate transport (Lineweaver–Burk) [4] | Ki [4] | Ki [7] | nature of inhibition of nitrate transport (Lineweaver–Burk) [7] | substrate / transport by NrtA in oocytes [8] | further results |
| --- | --- | --- | --- | --- | --- | --- | --- | --- | --- | --- | --- | --- |
| [O-][Cl+2]([O-])O [Chlorate, chlorate] | 100000 µM (≈ 8450 µg/mL) | 50000 µM (≈ 4220 µg/mL) | 25000 µM (≈ 2110 µg/mL) | 50000 µM (≈ 4220 µg/mL) | 50000 µM (≈ 4220 µg/mL) | 29.9 ± 3.7 mM | non-competitive inhibition | 44.3 ± 2.3 mM | 29.3 ± 2.8 mM | competition with nitrate | did not, however, observe transport | Ki ([3]; listed as chlorate): ~30 mM; nature of inhibition of nitrate transport (Lineweaver–Burk) ([4]; listed as chlorate): non-competitively; Ki ([4]; listed as chlorate): ~44 mM; net nitrate transport activity retained ([4]; nrtA1 (functional NrtB), 10 mM chlorate, data not shown): 93%; reduction of nitrate transport [5]: 80%; reduction of nitrate transport [6]: 80%; nature of inhibition of nitrate transport (Lineweaver–Burk) ([7]; listed as chlorate): competitive inhibitor; activity at 10000 µM ([7]; read-out: net nitrate transport activity retained): 65% |
| [O-][Cl+]O [Chlorite, chlorite] | 200 µM (≈ 13.7 µg/mL) | 500 µM (≈ 34.2 µg/mL) | 1000 µM (≈ 68.5 µg/mL) | 100 µM (≈ 6.85 µg/mL) | 3000 µM (≈ 205 µg/mL) | 0.35 ± 0.02 mM | non-competitive inhibition | 0.34 ± 0.02 mM | 0.49 ± 0.01 mM | competitive; also recorded: competition | substrate | MIC [1, 18]: 500 µM (≈ 34.2 µg/mL); MIC [9, 19]: > 500 µM; MIC [9, 17]: 5000 µM (≈ 342 µg/mL); MIC [9, 14]: >500 µM; MIC ([10]; 1 mM nitrate as sole nitrogen source): 200 µM (≈ 13.7 µg/mL); MIC [10, 14]: 500 µM (≈ 34.2 µg/mL); MIC [10, 18]: 500 µM (≈ 34.2 µg/mL); MIC [10, 15]: 2000 µM (≈ 137 µg/mL); MIC [2, 19]: 500 µM (≈ 34.2 µg/mL); MIC ([2]; Aspergillus nidulans, 10 mM nitrate as sole nitrogen source): 500 µM (≈ 34.2 µg/mL); MIC [2, 15]: 3000 µM (≈ 205 µg/mL); concentration sufficient to prevent transport of nitrate completely [11]: 1 mM; substrate for nitrite transporter NitA [12]: significant substrate |
